Measured values from patent US5563140A, “Use of 1-(aminoalkyl)-3-(benzyl)-quinoxaline-2-one derivatives for the preparation of neuroprotective compositions” (Phafag Aktiengesellschaft, priority 1991, dated 1996).

What was measured:
glutamate receptors = assay: Microiontophoresis at inner hair cell synapse of guinea pig cochlea: glutamate-induced spike activity; type: in vivo, guinea pigs
Protocol: The effectiveness of the 1-(aminoalkyl)-3-(benzyl)-quinoxaline-2-one derivatives as potential glutamate receptor antagonists was studied in the light of the neurotransmission between the inner hair cells (IHC) and the peripheral dendrites of the afferent neurons in the mammalian cochlea.
(§1) Experiments were performed on adult pigmented guinea pigs (300-700 g) of both sexes, anaesthetized with a combination of Rompun (Bayer, Leverkusen, Germany) and Innovar-Vet (Pitman-Moore, Mundelin, Ill., U.S.A.). Supplementary low doses of pentobarbital (Nembutal, Abbott, Chicago, U.S.A.) were given periodically throughout the experiments. Rectal temperature was maintained within physiological limits. After tracheotomy for artificial respiration, the auditory bulla was approached ventrolaterally and the cochlea was exposed. A small opening was drilled into the cochlea bone over the pigmented stria vascularis and the ligamentum spiale of the third turn.
(§2) The occurrence of phasic activity was used to identify the location precisely, since such activity occurs in the immediate vicinity of the initial postsynaptic structures.
Recordings of extracellular action potentials were obtained using a 2M NaCl-filled barrel of the 5-barrel glass micropipette. […]

[1] = tested on: membrane response to acetylcholine; assay: Microiontophoresis at inner hair cell synapse of guinea pig cochlea: acetylcholine-induced firing (selectivity); type: in vivo, guinea pigs; conditions: acetylcholine 60 nA; Caroverine 30 nA, FIG. 3
Protocol: as §1, §2
Recordings of extracellular action potentials were obtained using a 2M NaCl-filled barrel of the 5-barrel glass micropipette. […] Three other channels of the micropipette contained the solutions to be ejected microiontophoretically with the appropriate anionic and cationic currents: L-glutamic acid (0.5M, pH 3.5, adjusted with HCl); Caroverine-HCl (1-diethylaminoethyl-3-(p-methoxybenzyl)-1,2-dihydro-quinoxaline-2-one, 0.05M, natural pH=6.0). […]

tinnitus = assay: Pilot clinical study in patients suffering from tinnitus; type: in vivo; conditions: 70-160 mg
Protocol: The neuroprotective effect of Caroverine was tested in a clinical study with patients who suffered from tinnitus. The etiology of tinnitus can be very different in different patients. One of the most frequent tinnitus type is, however, the cochlear tinnitus. If a functional disturbance between the IHC and the peripheral dendrites of the […] neurons is deemed to be the initiating, etiological factor, then this is called a "cochlear synaptic tinnitus". A neuroprotective pharmaceutical like Caroverine should therefore have a positive effect on the cochlear synaptic tinnitus.
In a pilot study Caroverine was applied to 72 patients suffering from tinnitus. Caroverine was applied intravenously (160 mg/100 ml physiological NaCl-solution). The real dosage depended on the tinnitus reduction perceived by the individual patient and varied between 70 and 160 mg.
The effectiveness of Caroverine was measured by a subjective rating and tinnitus-matching before and after the infusion of the drug.

central nervous system = assay: Double-blind, placebo-controlled clinical study, EEG-mapping; type: in vivo, persons; conditions: 40 mg or 80 mg, orally or intravenously
Protocol: In a double-blind, placebo-controlled clinical study on a group of 15 persons, the cerebral effect of Caroverine was tested by means of electro-encephalogram (EEG)-mapping. The 15 caucasian probands were 7 females and 8 males between 20 and 35 years old (average 27 years). The weight ranged between 53 and 84 kg (average weight: 69 kg) and the height varied between 162 to 186 cm (average height: 175 cm).
Doses of 40 mg or 80 mg of Caroverine or placebo were administered either orally or intravenously for random sampling to the persons in weekly intervals. EEG-tracings as well as recordings of pulse, blood pressure and side effects were carried out 0, 1, 2, 4, 6 and 8 hours after medication.

[2] = Side-effects on application, also in high doses; type: in vivo; conditions: Caroverine and its salts
Description: Thus, it is experimentally established that 1-(aminoalkyl)-3-(benzyl)-quinoxaline-2-one derivatives are a potent, reversible and selective class of new glutamate receptor antagonists on the excitatory […] synapses of the cochlear inner hair cells.

CCN(CC)CCn1c(=O)c(Cc2ccc(O)cc2)nc2ccccc21 [1-diethylaminoethyl-3-(p-hydroxy)-1,2-dihydroquinoxaline-2-one]
effectiveness as glutamate receptor antagonist (glutamate receptors; cochlear inner hair cell synapses): effective

CCN(CC)CCn1c(=O)c(Cc2ccc(OC)cc2)nc2ccccc21 [Caroverine]
effect on acetylcholine-induced firing rate [1]: no effect | patients noting a tinnitus reduction of at least 50% in absolute value (tinnitus; immediately after intravenous infusion, 72 patients): 66.7% | side-effects (tinnitus; intravenous infusion): No sincere side-effects | time of maximum effect after medication (central nervous system): around 1 hour | side-effects [2]: no critical side-effects

N[C@@H](CCC(=O)O)C(=O)O [Glutamate, L-glutamic acid]
effect on firing rate of fibers in the synaptic region of IHC (glutamate receptors; agonist alone, n=29 out of 31 fibers): enhances the firing rate
